For data set [1] the following is noted: 25 mg/kg, healthy murine lung tissue; ref Irwin et al., 2016; cited from earlier work.
The conditions of data set [2]: mouse, tissue homogenate.
The conditions of data set [3]: in vivo, po, 10 mg/kg.
Data set [4] can be described thus: Unbound tissue concentrations (tissue binding by ultracentrifugation of spiked organ homogenate). As to conditions: 1 μg/ml, 4 h, 37°C.
Data set [5] deals with Mycobacterium tuberculosis. The note with it: determined in different experiments, reference not given; cited from earlier work.
Details of data set [6]: method as in Ishida et al., 1999. The note with it: 120 mg/kg, Streptococcus pneumoniae-infected mouse model; ref Ishida et al., 1999; cited from earlier work.

Consider six compounds from article PMC7248252, “Accumulation of TB-Active Compounds in Murine Organs Relevant to Infection by Mycobacterium tuberculosis” (Frontiers in Pharmacology, 2020).

Molecules are shown by their SMILES. Values after ≈ are worked out from the molar mass of the structure shown.

As for `COc1nc2ccc(Br)cc2cc1[C@@H](c1ccccc1)[C@@](O)(CCN(C)C)c1cccc2ccccc12` [bedaquiline], the Cmax lung tissue in data set [1] is 24 µM.
The MIC90 is an inhibitory concentration at the 90% level, which refers to growth in some studies and to a panel of isolates in others. With `CCN(CC)c1ccc2nc3c4ccccc4c(=Nc4ccccc4)cc-3oc2c1` [PhX1], the unbound fractions in data set [2] is on record as 0.18-0.01. In data set [3] (male, C57BL/6, mouse), this compound came in with an AUC lung tissue of 9669 ± 120.2 min/nmol/mg. For the same compound, the AUC heart tissue in data set [3] (mouse) is 12450 ± 45.2 min/nmol/mg. For the same compound, the “Cmax (highest concentration) lung tissue” value in data set [3] (mouse) is reported as 22.4 ± 2.35 nmol/mg. The compound further gave a Cmax heart tissue in data set [3] (mouse) of 8.83 ± 3.16 nmol/mg. For the same compound, the “estimated organ free fraction concentration compared with MIC90” value in data set [3] (mouse) is on record as “below the MIC90 values”. The Ratio bound in data set [4] (Blood) is on record as 0.88; in data set [4] (Brain), 0.98; in data set [4] (Heart), 0.98; in data set [4] (Kidney), 0.97; in data set [4] (Liver), 0.99; in data set [4] (Lung), 0.97. Further, the Ratio bound in data set [4] (Spleen) was determined as 0.94. The MIC90 in data set [5] was 0.196 µM (≈ 0.0771 µg/mL).
For `C[C@H]1COc2c(N3CCN(C)CC3)c(F)cc3c(=O)c(C(=O)O)cn1c23` [LVX], the maximal lung concentration in data set [6] was 5.95 µg/g.
On to `CCCCCCCCCOc1cc2c(=O)c(C(=O)NCCOCCO)cn(CC)c2cc1OCC` [RMB041], for which the unbound fractions in data set [2] is on record as 0.18-0.01. Further, in data set [3] (mouse), the “Cmax (highest concentration) lung tissue” value amounted to 3.2 nmol/mg. In addition, the “estimated organ free fraction concentration compared with MIC90” value in data set [3] (mouse) was “below the MIC90 values”. Further, the Ratio bound in data set [4] (Blood) was 0.82; in data set [4] (Brain), 0.98; in data set [4] (Heart) it was 0.97; in data set [4] (Kidney), 0.97; in data set [4] (Liver) it was 0.91; in data set [4] (Lung) it was 0.93. Moreover, the Ratio bound in data set [4] (Spleen) is reported as 0.92. Also, the MIC90 in data set [5] was 1.61 µM (≈ 0.79 µg/mL).
With `CC1(C)S[C@@H]2[C@H](NC(=O)[C@H](N)c3ccccc3)C(=O)N2[C@H]1C(=O)O` [ampicillin], the maximal lung concentration in data set [6] is recorded as 1.71 µg/g.
Regarding `O=C(O)c1cn(C2CC2)c2cc(N3CCNCC3)c(F)cc2c1=O` [ciprofloxacin], in data set [6], the maximal lung concentration is recorded as 1.10 µg/g.
